Assay results published in ChEMBL document CHEMBL1697781, “Assessment of the health effects of chemicals in humans: II. Construction of an adverse effects database for QSAR modeling” (Curr Drug Discov Technol, 2004).

What was measured:
Settings in all cases: human; call rule not given here
Hepatotoxicity [1] = assay: FDA HLAED, lactate dehydrogenase (LDH) increase
Hepatotoxicity [2] = assay: FDA HLAED, alkaline phosphatase increase
Hepatotoxicity [3] = assay: FDA HLAED, gamma-glutamyl transferase (GGT) increase
Hepatotoxicity [4] = assay: FDA HLAED, liver enzyme composite activity
Hepatotoxicity [5] = assay: FDA HLAED, serum glutamic pyruvic transaminase (SGPT) increase
Hepatotoxicity [6] = assay: FDA HLAED, serum glutamic oxaloacetic transaminase (SGOT) increase
For GGT Increase - Index Value in this document: reference of the scale not given here.
For LDH Increase - Index Value in this document: reference of the scale not given here.

| Compound | LDH Increase - Activity Score (Hepatotoxicity [1]) | LDH Increase - Index Value (Hepatotoxicity [1]) | LDH Increase - Number of Reports (Hepatotoxicity [1]) | Alkaline Phosphatase Increase - Activity Score (Hepatotoxicity [2]) | Alkaline Phosphatase Increase - Index Value (Hepatotoxicity [2]) | Alkaline Phosphatase Increase - Number of Reports (Hepatotoxicity [2]) | GGT Increase - Activity Score (Hepatotoxicity [3]) | GGT Increase - Index Value (Hepatotoxicity [3]) | GGT Increase - Number of Reports (Hepatotoxicity [3]) | Composite Activity - Active (Hepatotoxicity [4]) | Composite Activity - Marginal (Hepatotoxicity [4]) | Composite Activity - Score (Hepatotoxicity [4]) | SGPT Increase - Activity Score (Hepatotoxicity [5]) | SGPT Increase - Index Value (Hepatotoxicity [5]) | SGPT Increase - Number of Reports (Hepatotoxicity [5]) | SGOT Increase - Activity Score (Hepatotoxicity [6]) | SGOT Increase - Index Value (Hepatotoxicity [6]) | SGOT Increase - Number of Reports (Hepatotoxicity [6]) | other results |
| --- | --- | --- | --- | --- | --- | --- | --- | --- | --- | --- | --- | --- | --- | --- | --- | --- | --- | --- | --- |
| CO/N=C(\C(=O)N[C@@H]1C(=O)N2C(C(=O)OC(C)OC(C)=O)=C(COC(N)=O)CS[C@H]12)c1ccco1 (stereo partly specified) [CEFUROXIME AXETIL] | Inactive | 0 | < 4 | Inactive | 0 | < 4 | Inactive | 0 | < 4 | 0 | 0 | Inactive | Inactive | 0 | < 4 | Inactive | 0 | < 4 |  |
| CO/N=C(/C(=O)N[C@@H]1C(=O)N2C(C(=O)OC(C)OC(=O)C(C)(C)OC)=C(COC(N)=O)CS[C@H]12)c1ccco1 (stereo partly specified) [CEFUROXIME PIVOXETIL] | Inactive | 0 | < 4 | Inactive | 0 | < 4 | Inactive | 0 | < 4 | 0 | 0 | Inactive | Inactive | 0 | < 4 | Inactive | 0 | < 4 |  |
| CO/N=C(\C(=O)N[C@@H]1C(=O)N2C(C(=O)O)=C(COC(N)=O)CS[C@H]12)c1ccco1 [CEFUROXIME] | Inactive | 0 | < 4 | Inactive | 0 | < 4 | Inactive | 0 | < 4 | 0 | 0 | Inactive | Inactive | 0 | < 4 | Inactive | 0.2 | < 4 |  |
| CC(=O)OCC1=C(C(=O)O)N2C(=O)[C@@H](NC(=O)CSc3ccncc3)[C@H]2SC1 [CEPHAPIRIN] | Inactive | 0 | < 4 | Inactive | 0 | < 4 | Inactive | 0 | < 4 | 0 | 0 | Inactive | Inactive | 0 | < 4 | Inactive | 0 | < 4 |  |
| O=C(O)COCCN1CCN(C(c2ccccc2)c2ccc(Cl)cc2)CC1 (stereo unspecified) [CETIRIZINE] | Inactive | 1 | < 4 | Inactive | 0 | < 4 | Inactive | 0.6 | < 4 |  |  |  | Inactive | 1.3 | >= 4 | Inactive | 1 | < 4 | Composite Activity - Active (Hepatotoxicity [4]; Liver): 0; Composite Activity - Marginal (Hepatotoxicity [4]; Liver): 0; Composite Activity - Score (Hepatotoxicity [4]; Liver): Inactive |
| C[C@H](CCC(=O)O)[C@H]1CC[C@H]2[C@@H]3[C@H](O)C[C@@H]4C[C@H](O)CC[C@]4(C)[C@H]3CC[C@]12C [CHENODIOL] | Inactive | 0 | < 4 | Inactive | 0 | < 4 | Inactive | 0 | < 4 | 0 | 0 | Inactive | Inactive | 0 | < 4 | Inactive | 0 | < 4 |  |
| Cc1cc(C2CCCCC2)n(O)c(=O)c1 [CICLOPIROX] | Inactive | 0 | < 4 | Inactive | 0 | < 4 | Inactive | 0 | < 4 | 0 | 0 | Inactive | Inactive | 0 | < 4 | Inactive | 0 | < 4 |  |
| Nc1ccn(C[C@@H](CO)OCP(=O)(O)O)c(=O)n1.O.O [CIDOFOVIR] | Inactive | 46.1 | < 4 | Active | 92.2 | < 4 | Inactive | 0 | < 4 | 1 | 0 | Inactive | Inactive | 0 | < 4 | Inactive | 46.1 | < 4 |  |
| CCn1nc(C(=O)O)c(=O)c2cc3c(cc21)OCO3 [CINOXACIN] | Inactive | 0 | < 4 | Inactive | 0 | < 4 | Inactive | 0 | < 4 | 2 | 0 | Active | Active | 15.1 | >= 4 | Active | 16.9 | >= 4 |  |
| O=C(O)c1cn(C2CC2)c2cc(N3CCNCC3)c(F)cc2c1=O [CIPROFLOXACIN] | Inactive | 0.9 | >= 4 | Inactive | 2.3 | >= 4 | Inactive | 0.8 | >= 4 |  |  |  | Inactive | 2.1 | >= 4 | Marginally Active | 3.1 | >= 4 | Composite Activity - Active (Hepatotoxicity [4]; Liver): 0; Composite Activity - Marginal (Hepatotoxicity [4]; Liver): 1; Composite Activity - Score (Hepatotoxicity [4]; Liver): Inactive |
| COc1cc(N)c(Cl)cc1C(=O)NC1CCN(CCCOc2ccc(F)cc2)CC1OC (stereo unspecified) [CISAPRIDE] | Inactive | 0.1 | < 4 | Inactive | 0.2 | >= 4 | Inactive | 0.2 | < 4 | 0 | 0 | Inactive | Inactive | 0.4 | >= 4 | Inactive | 0.3 | >= 4 |  |
| Nc1nc(Cl)nc2c1ncn2[C@H]1C[C@H](O)[C@@H](CO)O1 [CLADRIBINE] | Inactive | 0 | < 4 | Inactive | 16.2 | < 4 | Inactive | 8.1 | < 4 | 0 | 0 | Inactive | Inactive | 16.2 | < 4 | Inactive | 16.2 | < 4 |  |
